Results from US20200060276A1, “THIAZOLE COMPOUND AND HERBICIDE” (OAT Agrio Co., Ltd., priority 2017, published 2020).

Key:
Type in all cases: in vivo
[1] = system: Echinochloa crus-galli (L.) P. Beauv. var. formosensis Ohwi; experiment: Test for Herbicidal Effect in Flooding Treatment (#1), ECHDG; details: for ECHDG #1 herbicidal effect (growth inhibition grade): flooding treatment at seeding, dose 2 kg/ha, visual observation on day 21; for ECHDG #1 herbicidal effect (growth inhibition rating 0-5): flooding treatment #1
Experimental: (§1) (#1) Test for Herbicidal Effect in Flooding Treatment: Styrol cups each having an opening diameter of 8 cm (about 52 cm^2) were respectively filled with soil (45 ml) which had been passed through a sieve (2 mm). Water (about 115 ml) was mixed with the soil such that the soil was flooded. After the soil stood still for 24 hours, Monochoria vaginalis, Echinochloa crus-galli (L.) P. Beauv. var. formosensis Ohwi, Cyperus difformis (umbrella sedge), and Scirpus juncoides were seeded. Each of the compounds of the present invention was dissolved in acetone, and the obtained product was then diluted with water containing Tween 80®. Each of the resultant chemical solutions was dropped on the entire surface of an associated one of treatment sections, so that each section was treated with 1 ml of the respective chemical solution (a dose of 2 kg/ha). After the treatment, the plants were grown in a glasshouse. On day 21, a survey was conducted on the herbicidal activity by visual observation, and evaluation was made according to the following criteria. 0: Growth inhibition effect is less than 10%. 1: Growth inhibition effect is equal to or greater than 10%, and less than 30%. 2; Growth inhibition effect is equal to or greater than 30%, and less than 50%. 3: Growth inhibition effect equal to or greater than 50%, and less than 70%. 4: Growth inhibition effect is equal to or greater than 70%, and less than 90%. 5: Growth inhibition effect is equal to or greater than 90%, or complete withering is achieved. ECHDG=Echinochloa crus-galli (L.) P. Beauv. var. formosensis Ohwi, MONVA=Monochoria vaginalis, SCIJU=Scirpus juncoides, CYMIC=Cyperus microiria.

Monochoria vaginalis = experiment: Test for Herbicidal Effect in Flooding Treatment (#1), MONVA; details: for MONVA #1 herbicidal effect (growth inhibition grade): flooding treatment at seeding, dose 2 kg/ha, visual observation on day 21; for MONVA #1 herbicidal effect (growth inhibition rating 0-5): flooding treatment #1
Experimental: as §1

Scirpus juncoides = experiment: Test for Herbicidal Effect in Flooding Treatment (#1), SCIJU; details: for SCIJU #1 herbicidal effect (growth inhibition grade): flooding treatment at seeding, dose 2 kg/ha, visual observation on day 21; for SCIJU #1 herbicidal effect (growth inhibition rating 0-5): flooding treatment #1
Experimental: as §1

[2] = system: Echinochloa crus-galli (L.) P. Beauv. var. formosensis Ohwi; experiment: Test for Herbicidal Effect in Flooding Treatment (#2), ECHDG at 2-2.5 leaf stage; details: for ECHDG (2-2.5L) #2 herbicidal effect (growth inhibition grade): flooding treatment at 2-2.5 leaf stage, dose 0.2 kg/ha, visual observation on day 21
Experimental: (#2) Test for Herbicidal Effect in Flooding Treatment: Styrol cups each having an opening diameter of 13 cm (about 130 cm^2) were respectively filled with muddy soil (500 ml). Water (about 300 ml) was mixed with the soil such that the soil was flooded. After the soil stood still for 24 hours, Echinochloa crus-galli (L.) P. Beauv. var. formosensis Ohwi was seeded. When the Echinochloa crus-galli (L.) P. Beauv. var. formosensis Ohwi grew to reach 2-2.5 leaf stage, chemical solutions were dropped on the entire surface of treatment sections, so that each section is treated with 1 ml of the respective chemical solution (a dose of 0.2 kg/ha). Each of the chemical solutions was prepared by dissolving associated one of the compounds of the present invention in acetone, followed by dilution with water containing Tween 80 g. After the treatment, the plants were grown in a glasshouse. On day 21, a survey was conducted on the herbicidal activity by visual observation, and evaluation was made according to the following criteria. 0: Growth inhibition effect is less than 10%. 1: Growth inhibition effect is equal to or greater than 10%, and less than 30%. 2; Growth inhibition effect is equal to or greater than 30%, and less than 50%. 3: Growth inhibition effect equal to or greater than 50%, and less than 70%. 4: Growth inhibition effect is equal to or greater than 70%, and less than 90%. 5: Growth inhibition effect is equal to or greater than 90%, or complete withering is achieved. ECHDG=Echinochloa crus-galli (L.) P. Beauv. var. formosensis Ohwi, MONVA=Monochoria vaginalis, SCIJU=Scirpus juncoides, CYMIC=Cyperus microiria. The herbicidal activity of the following comparative compounds A and B (the compounds disclosed Japanese Unexamined Patent Publication No. 2003-096059) were evaluated in a manner pursuant to Test Example 1. (#2).

SMILES | ECHDG #1 herbicidal effect (growth inhibition grade) [1] | MONVA #1 herbicidal effect (growth inhibition grade) (Monochoria vaginalis) | SCIJU #1 herbicidal effect (growth inhibition grade) (Scirpus juncoides) | ECHDG (2-2.5L) #2 herbicidal effect (growth inhibition grade) [2] | ECHDG #1 herbicidal effect (growth inhibition rating 0-5) [1] | MONVA #1 herbicidal effect (growth inhibition rating 0-5) (Monochoria vaginalis) | SCIJU #1 herbicidal effect (growth inhibition rating 0-5) (Scirpus juncoides) | ECHDG (2-2.5L) #2 herbicidal effect (growth inhibition rating 0-5) ([2]; flooding treatment #2, 2-2.5 leaf stage)
CC(c1c(F)cccc1OCC(F)F)S(=O)(=O)c1ncc(Cl)s1 (racemic) [Compound 1C-142] | 5 (Growth inhibition effect is equal to or greater than 90%, or complete withering is achieved) | 5 (Growth inhibition effect is equal to or greater than 90%, or complete withering is achieved) | 5 (Growth inhibition effect is equal to or greater than 90%, or complete withering is achieved) | 5 (Growth inhibition effect is equal to or greater than 90%, or complete withering is achieved) | – | – | – | –
COC(=O)C(c1c(F)cccc1OC(F)F)S(=O)(=O)c1ncc(Cl)s1 (racemic) [Compound 1C-145] | 5 (Growth inhibition effect is equal to or greater than 90%, or complete withering is achieved) | 5 (Growth inhibition effect is equal to or greater than 90%, or complete withering is achieved) | 5 (Growth inhibition effect is equal to or greater than 90%, or complete withering is achieved) | 5 (Growth inhibition effect is equal to or greater than 90%, or complete withering is achieved) | – | – | – | –
CC(=O)C(c1c(F)cccc1OC(F)F)S(=O)(=O)c1ncc(Cl)s1 (racemic) [Compound 1C-146] | 5 (Growth inhibition effect is equal to or greater than 90%, or complete withering is achieved) | 5 (Growth inhibition effect is equal to or greater than 90%, or complete withering is achieved) | 5 (Growth inhibition effect is equal to or greater than 90%, or complete withering is achieved) | 5 (Growth inhibition effect is equal to or greater than 90%, or complete withering is achieved) | – | – | – | –
CC(c1c(F)cccc1OCCC(F)(F)F)S(=O)(=O)c1ncc(Cl)s1 (racemic) [Compound 1C-149] | 5 (Growth inhibition effect is equal to or greater than 90%, or complete withering is achieved) | 5 (Growth inhibition effect is equal to or greater than 90%, or complete withering is achieved) | 5 (Growth inhibition effect is equal to or greater than 90%, or complete withering is achieved) | 4 (Growth inhibition effect is equal to or greater than 70%, and less than 90%) | – | – | – | –
CC(c1c(Cl)cccc1OCCC(F)(F)F)S(=O)(=O)c1ncc(Cl)s1 (racemic) [Compound 1C-150] | 5 (Growth inhibition effect is equal to or greater than 90%, or complete withering is achieved) | 5 (Growth inhibition effect is equal to or greater than 90%, or complete withering is achieved) | 5 (Growth inhibition effect is equal to or greater than 90%, or complete withering is achieved) | – | – | – | – | –
COc1cccc(Cl)c1C[S+]([O-])c1ncc(Cl)s1 (centres unmarked) [Compound 1B-1] | – | – | – | – | 5 (Growth inhibition effect is equal to or greater than 90%, or complete withering is achieved) | 3 (Growth inhibition effect equal to or greater than 50%, and less than 70%) | 4 (Growth inhibition effect is equal to or greater than 70%, and less than 90%) | 4 (Growth inhibition effect is equal to or greater than 70%, and less than 90%)
[O-][S+](Cc1c(F)cccc1OCC(F)F)c1ncc(Cl)s1 (centres unmarked) [Compound 1B-7] | – | – | – | – | 5 (Growth inhibition effect is equal to or greater than 90%, or complete withering is achieved) | 5 (Growth inhibition effect is equal to or greater than 90%, or complete withering is achieved) | 5 (Growth inhibition effect is equal to or greater than 90%, or complete withering is achieved) | –
[O-][S+](Cc1c(Cl)cccc1OCC(F)(F)C(F)(F)F)c1ncc(Cl)s1 (centres unmarked) [Compound 1B-14] | – | – | – | – | 5 (Growth inhibition effect is equal to or greater than 90%, or complete withering is achieved) | 5 (Growth inhibition effect is equal to or greater than 90%, or complete withering is achieved) | 5 (Growth inhibition effect is equal to or greater than 90%, or complete withering is achieved) | –
[O-][S+](Cc1c(OCC(F)F)cccc1OCC(F)F)c1ncc(Cl)s1 (centres unmarked) [Compound 1B-15] | – | – | – | – | 3 (Growth inhibition effect equal to or greater than 50%, and less than 70%) | 5 (Growth inhibition effect is equal to or greater than 90%, or complete withering is achieved) | 5 (Growth inhibition effect is equal to or greater than 90%, or complete withering is achieved) | –
CCOC(=O)C(F)(F)Oc1cccc(Cl)c1CS(=O)(=O)c1ncc(Cl)s1 [Compound 1C-64] | 5 (Growth inhibition effect is equal to or greater than 90%, or complete withering is achieved) | 5 (Growth inhibition effect is equal to or greater than 90%, or complete withering is achieved) | 5 (Growth inhibition effect is equal to or greater than 90%, or complete withering is achieved) | – | – | – | – | –
O=S(=O)(Cc1c(OCC(F)F)cccc1OCC(F)F)c1ncc(Cl)s1 [Compound 1C-129] | 5 (Growth inhibition effect is equal to or greater than 90%, or complete withering is achieved) | 5 (Growth inhibition effect is equal to or greater than 90%, or complete withering is achieved) | 4 (Growth inhibition effect is equal to or greater than 70%, and less than 90%) | – | – | – | – | –
CCOc1ccc(Cl)cc1C(F)(F)S(=O)(=O)c1nc(F)c(Cl)s1 [Compound 1C-139] | – | 5 (Growth inhibition effect is equal to or greater than 90%, or complete withering is achieved) | 5 (Growth inhibition effect is equal to or greater than 90%, or complete withering is achieved) | 1 (Growth inhibition effect is equal to or greater than 10%, and less than 30%) | – | – | – | –
COc1ccc(Cl)c(CS(=O)(=O)c2ncc(C(F)(F)F)s2)c1F [Compound 1C-167] | 5 (Growth inhibition effect is equal to or greater than 90%, or complete withering is achieved) | 5 (Growth inhibition effect is equal to or greater than 90%, or complete withering is achieved) | 5 (Growth inhibition effect is equal to or greater than 90%, or complete withering is achieved) | – | – | – | – | –
CS(=O)(=O)c1ccc(CS(=O)(=O)c2ncc(Cl)s2)cc1 [Compound 1C-168] | 5 (Growth inhibition effect is equal to or greater than 90%, or complete withering is achieved) | 5 (Growth inhibition effect is equal to or greater than 90%, or complete withering is achieved) | 5 (Growth inhibition effect is equal to or greater than 90%, or complete withering is achieved) | – | – | – | – | –
C#CCN(C)c1cccc(F)c1CS(=O)(=O)c1ncc(Cl)s1 [Compound 1C-169] | 5 (Growth inhibition effect is equal to or greater than 90%, or complete withering is achieved) | 5 (Growth inhibition effect is equal to or greater than 90%, or complete withering is achieved) | 5 (Growth inhibition effect is equal to or greater than 90%, or complete withering is achieved) | – | – | – | – | –
